Measurements published in ChEMBL document CHEMBL1158840, “Cytotoxic prenylflavonoids from Artocarpus elasticus” (2005).
In brackets after ≈: the same amount, converted by molar mass. Activity calls are given as the source filed them. The rule behind the calls is not given here.

Legend:
Hep 3B2 = test: (§1) Cytotoxicity against human Hep3B cells by MTT assay; format: functional
HT-29 = test: Cytotoxicity against human HT-29 cells by MTT assay; format: functional; settings: for EC50: read-out: ED50 (the source's name)
A549 = test: Cytotoxicity against human A549 cells by MTT assay; format: functional; settings: for EC50: read-out: ED50 (the source's name)
MCF7 = test: Cytotoxicity against human MCF7 cells by MTT assay; format: functional; settings: for EC50: read-out: ED50 (the source's name)
[1] = as §1; format: functional, Hep 3B2; settings: read-out: ED50 (the source's name)

With `COc1cc(O)c2c3c1-c1oc4c(/C=C(\O)C(C)(C)O)c(O)cc(O)c4c(=O)c1C[C@@H]3C(C)(C)O2` the Activity (Hep 3B2) was “inactive”, the Activity (HT-29) was “inactive” and the Activity (A549) was “inactive”. For the same compound, the Activity (MCF7) was “inactive”.

In the case of `C=C(C)C1Cc2c(oc3c(CC=C(C)C)c4c(c(O)c3c2=O)C=CC(C)(C)O4)-c2c(O)cc(O)c(O)c21` (stereo not given), the Activity (Hep 3B2) is reported as “inactive”, the Activity (HT-29) is reported as “inactive” and the Activity (A549) is reported as “inactive”. The Activity (MCF7) was “inactive”.

In the case of `CC(C)=CCc1c2c(c(O)c3c(=O)c(C(O)C=C(C)C)c(-c4cc(O)c(O)cc4O)oc13)C=CC(C)(C)O2` (stereo not given), the Activity (Hep 3B2) is reported as “inactive”, the Activity (HT-29) is reported as “inactive” and the Activity (A549) is reported as “inactive”. For the same compound, the Activity (MCF7) was “inactive”.

In the case of `CC(C)=CCC/C(C)=C/Cc1c2c(c3oc4c(c(=O)c3c1O)CC1c3c(c(O)cc(O)c3-4)OC1(C)C)C=CC(C)(C)O2` (stereo not given), the Activity (Hep 3B2) is reported as “inactive”, the Activity (HT-29) is reported as “inactive” and the Activity (A549) is reported as “inactive”. The Activity (MCF7) was “inactive”.

Work on `O=c1[nH]cc(F)c(=O)[nH]1` [FLUOROURACIL] yielded an EC50 [1] of 0.6 µg/mL (≈ 4.61 µM), an EC50 (HT-29) of 0.2 µg/mL (≈ 1.54 µM) and an EC50 (A549) of 0.4 µg/mL (≈ 3.08 µM). It also gave an EC50 (MCF7) of 0.2 µg/mL (≈ 1.54 µM).

`C=C(C)C1CC(=O)c2oc3c4c(cc(O)c3c(=O)c2C1)OC(C)(C)C=C4` (stereo not given) [ARTONOL A] showed an EC50 [1] of 21.9 µg/mL (≈ 62.1 µM), an EC50 (HT-29) of 3.1 µg/mL (≈ 8.8 µM) and an EC50 (A549) of 1.1 µg/mL (≈ 3.12 µM). For the same compound, the EC50 (MCF7) was 2.7 µg/mL (≈ 7.66 µM).

With `CC(=O)C1c2oc3c4c(cc(O)c3c(=O)c2CC2C1C(=O)OC2(C)C)OC(C)(C)C=C4` (stereo not given) the Activity (Hep 3B2) was “inactive”, the Activity (HT-29) was “inactive” and the Activity (A549) was “inactive”. For the same compound, the Activity (MCF7) was “inactive”.

With `CC1(C)C=Cc2c(cc(O)c3c(=O)c4c(oc23)-c2c(O)cc(O)c3c2C(C4)C(C)(C)O3)O1` (stereo not given) the Activity (Hep 3B2) was “inactive”, the Activity (HT-29) was “inactive” and the Activity (A549) was “inactive”. The Activity (MCF7) was “inactive”.

With `COc1cc(O)c(-c2oc3c(CC=C(C)C)c(O)cc(O)c3c(=O)c2C(O)C=C(C)C)cc1O` (stereo not given) the Activity (Hep 3B2) was “inactive”, the Activity (HT-29) was “inactive” and the Activity (A549) was “inactive”. For the same compound, the Activity (MCF7) was “inactive”.

In the case of `C=C(C)C1Cc2c(oc3cc(O)cc(O)c3c2=O)-c2c(O)c3c(c(O)c21)OC(C)(C)C=C3` (stereo not given) [ARTELASTOXANTHONE], the EC50 [1] is reported as 3.2 µg/mL (≈ 7.37 µM), the EC50 (HT-29) is reported as 3.9 µg/mL (≈ 8.98 µM) and the EC50 (A549) is reported as 10 µg/mL (≈ 23 µM). For the same compound, the EC50 (MCF7) was 3.1 µg/mL (≈ 7.14 µM).
